For 17 molecules, CC50 and EC50 results are on record in publication PMC11145868, “Protein target similarity is positive predictor of in vitro antipathogenic activity: a drug repurposing strategy for Plasmodium falciparum” (Journal of Cheminformatics, 2024).

SMILES strings stand for the structures. pEC50: −log10 of the molar value. Structures can show the parent of a compound that is named as a salt. Where two headings read alike, the source gives them in different places. Some results are limits rather than exact numbers.

The nature of data set [1]: Mammalian cell cytotoxicity assay, HEK293T (CellTiter-Glo, 72 h). The conditions noted are these: human, HEK293T cells. (In general: ATP-based viability assays read luminescence as a measure of living cells.)
The subject of data set [2] is P. falciparum Dd2-HLH. The data set is described as follows: microbe, parasite or virus in culture. Format: cell-based, Plasmodium falciparum. Conditions: read-out: Blood stage 72h EC50.
In data set [3] the test system is P. falciparum Dd2-HLH. The data set is described as follows: microbe, parasite or virus in culture. Format: cell-based, Plasmodium falciparum.
Data set [4] has as its system P. berghei-luciferase sporozoites. Briefly: microbe, parasite or virus in culture. Format: cell-based, Plasmodium berghei. The conditions noted are these: liver-stage parasites, 48 hours in culture, read-out: Liver stage 48h EC50.
The mark [5] stands for this setting: Plasmodium falciparum, DD2, 72 h.
[6] abbreviates: Plasmodium falciparum, DD2, 48 h, read-out: Blood stage 48h EC50.

Regarding `Cc1cc(Nc2nc(C(O)c3ccc(F)cc3)nc3ccccc23)n[nH]1` (stereo not shown) [AC-430], the CC50 (commonly the concentration giving 50% cytotoxicity) at 72 h in data set [1] is greater than 9950 nM. Further, the pEC50 (usually −log10 of the EC50, conventionally taken in molar units) in data set [2] (setting [5]) is 6.03; in data set [3] (setting [6]), 5.92; in data set [4] (Plasmodium berghei, HepG2), 5.38.

Regarding `O=C(Nc1c[nH]nc1-c1nc2ccc(CN3CCOCC3)cc2[nH]1)NC1CC1` [AT-9283], the pEC50 in data set [2] (setting [5]) was 6.06; in data set [3] (setting [6]) it was 6.89; in data set [4] (Plasmodium berghei, HepG2) it was 6.24.

In the case of `CN(C)Cc1c(C(=O)NCCOc2ccc(C(=O)NO)cc2)oc2ccccc12` [Abexinostat], in data set [1], the CC50 at 72 h worked out at 376 nM. The negative-log EC50 (pEC50) in data set [2] (setting [5]) was 7.04; in data set [3] (setting [6]) it was 7.29; in data set [4] (Plasmodium berghei, HepG2), 5.92.

In turn, `CCc1cc2c(cc1N1CCC(N3CCOCC3)CC1)C(C)(C)c1[nH]c3cc(C#N)ccc3c1C2=O` [Alectinib Hydrochloride] gave a CC50 at 72 h in data set [1] of 797 nM. The pEC50 in data set [2] (setting [5]) was 6.03; in data set [3] (setting [6]) it was 6.04; in data set [4] (Plasmodium berghei, HepG2), 6.82.

Consider `COc1ccc(C[C@H]2NC[C@H](O)[C@H]2OC(C)=O)cc1` [Anisomycin], for which the pEC50 in data set [2] (P. falciparum blood-stage parasites, 72 hours in culture) was 7.21; in data set [3] (P. falciparum blood-stage parasites, 48 hours in culture, read-out: Blood stage 48h EC50), 7.36; in data set [4] it was 6.58.

`COc1ccc(CCN2CCC(Nc3nc4ccccc4n3Cc3ccc(F)cc3)CC2)cc1` [Astemizole]: the CC50 at 72 h in data set [1] is greater than 9950 nM.

For `CNC(=O)[C@H](Cc1ccccc1)NC(=O)[C@H](CC(C)C)[C@H](CSc1cccs1)C(=O)NO` [Batimastat], the half-maximal cytotoxic concentration (CC50) at 72 h in data set [1] is greater than 9950 nM. Also, the pEC50 in data set [2] (setting [5]) was 6.78; in data set [3] (setting [6]), 7.02; in data set [4] (Plasmodium berghei, HepG2) it was less than 5.00.

The molecule `Cc1c(-c2ccc(O)cc2)n(Cc2ccc(OCCN3CCCCCC3)cc2)c2ccc(O)cc12` [Bazedoxifene Acetate] had a CC50 at 72 h in data set [1] of 3040 nM. Besides, the pEC50 in data set [2] (setting [5]) is 6.20; in data set [3] (setting [6]) it was 6.72; in data set [4] (Plasmodium berghei, HepG2), 5.26.

Turning to `O=C(/C=C/c1cccc(S(=O)(=O)Nc2ccccc2)c1)NO` [Belinostat], the CC50 at 72 h in data set [1] amounted to 1290 nM. Besides, the pEC50 in data set [2] (setting [5]) is 6.73; in data set [3] (setting [6]) it was 7.05; in data set [4] (Plasmodium berghei, HepG2), 5.74.

For `CC[C@H](NC(=O)[C@H](C)NC)C(=O)N1C[C@@H](O)C[C@H]1Cc1c(-c2[nH]c3cc(F)ccc3c2C[C@@H]2C[C@H](O)CN2C(=O)[C@H](CC)NC(=O)[C@H](C)NC)[nH]c2cc(F)ccc12` [Birin/apant], the CC50 at 72 h in data set [1] is greater than 9950 nM. Further, the pEC50 in data set [2] (setting [5]) was 6.22; in data set [3] (setting [6]), 6.72; in data set [4] (Plasmodium berghei, HepG2) it was less than 5.00.

Molecule `CC(C)C[C@H](NC(=O)[C@H](Cc1ccccc1)NC(=O)c1cnccn1)B(O)O` [Bortezomib] registered a CC50 at 72 h in data set [1] of 25 nM. Further, the pEC50 in data set [2] (setting [5]) was 7.09; in data set [3] (setting [6]) it was 7.04; in data set [4] (Plasmodium berghei, HepG2) it was 7.92.

For `COC(=O)[C@@]12OC[C@]34[C@H]([C@@H](O)[C@@H]1O)[C@@]1(C)CC(=O)C(O)=C(C)[C@@H]1C[C@H]3OC(=O)[C@H](OC(=O)/C=C(\C)C(C)C)[C@@H]24` [Bruceantin, reference compound], the midpoint of cytotoxicity in data set [1], the CC50 at 72 h, lay at 25 nM. Further, the negative logarithm of the EC50 (pEC50) in data set [2] (setting [5]) was 8.15; in data set [3] (Plasmodium falciparum, DD2, Hec50, 48 h, read-out: Blood stage 48 h EC50) it was 8.30.

Molecule `COc1ccc(C(=O)c2cn(C(C)C)c3ncnc(N)c23)cc1NC(=O)Nc1ccc(Cl)cc1Cl` [CE-245677] showed a CC50 at 72 h in data set [1] greater than 9950 nM. Further, the negative-log EC50 (pEC50) in data set [2] (setting [5]) is 6.09; in data set [3] (setting [6]), 6.21; in data set [4] (Plasmodium berghei, HepG2), 5.48.

In data set [1], `C#Cc1cccc(Nc2ncnc3cc(OC)c(OCCCCCCC(=O)NO)cc23)c1` [CUDC-101] returned a half-maximal cytotoxic concentration (CC50) at 72 h of 408 nM. For the same molecule, the pEC50 in data set [2] (setting [5]) is 7.28; in data set [3] (setting [6]), 7.39; in data set [4] (Plasmodium berghei, HepG2), 6.46.

As for `CO[C@@H]1[C@H](O)C[C@@H](O[C@@H]2C[C@H](Oc3cc4cc5c(c(O)c4c(O)c3C)C(=O)[C@@H](O[C@H]3C[C@@H](O[C@H]4C[C@@H](O[C@H]6C[C@](C)(O)[C@@H](OC(C)=O)[C@H](C)O6)[C@H](O)[C@@H](C)O4)[C@H](O)[C@@H](C)O3)[C@H]([C@H](OC)C(=O)[C@@H](O)[C@@H](C)O)C5)O[C@H](C)[C@@H]2OC(C)=O)O[C@@H]1C` [Chromomycin A3], the negative logarithm of the EC50 (pEC50) in data set [2] (setting [5]) was 7.32; in data set [3] (setting [6]) it was 7.51; in data set [4] (Plasmodium berghei, HepG2), 7.52.

The molecule `COc1cc2ncnc(Nc3ccc(F)c(Cl)c3)c2cc1NC(=O)/C=C/CN1CCCCC1` [Dacomitinib] came in with a CC50 at 72 h in data set [1] of 2620 nM. Also, the pEC50 is 6.02 in data set [2] (setting [5]); 6.27 in data set [3] (setting [6]); 6.22 in data set [4] (Plasmodium berghei, HepG2).

On to `CCN(CC)CCN(Cc1ccc(-c2ccc(C(F)(F)F)cc2)cc1)C(=O)Cn1c(SCc2ccc(F)cc2)nc(=O)c2c1CCC2` [Darapladib], for which the half-maximal cytotoxic concentration (CC50) at 72 h in data set [1] was determined as 1730 nM. Also, the pEC50 in data set [2] (setting [5]) is 6.07; in data set [3] (setting [6]) it was 6.29; in data set [4] (Plasmodium berghei, HepG2), 5.54.
